Experimental data taken from patent US20180094250A1, “Methods And Compositions For PCR” (Life Technologies Coroporation, priority 2007, published 2018).

Key:
Type in all cases: biochemical
[1] = system: cDNA (human); experiment: PCR Residual Activity Assay with three primer sets, agarose gel; settings: preincubation 25° C. for 60 min, 40 cycles
Method: Under these conditions, if hot-start techniques were not employed, primer dimers tend to form in the PCR reaction mix.
This example includes reactions which is referred to as PCR Residual Activity Assay that involved three set of primers respectively. The primer sets are commercially available from Applied Biosystems, Foster City, Calif. Specifically, Set 1 is Hs00378363_g1; Set 2, Hs00399572_m1 and Set 3, Hs00372859_m1.
The components are listed below:
50 Unit/ml DNA polymerase
and 0.8 ng/μl cDNA (human)
Due to the needs of the individual polymerases, 1× buffer and 1×MgCl2 are different as stated below:
The cycling conditions for ECA001 are listed below:
The cycling conditions for ECA001-Gold:
The cycling conditions for AmpliTaq:
The cycling conditions for AmpliTaq Gold:
Each reaction was run in duplication.

[2] = polymerase activity at room temperature relative to peak activity
Excerpt: Pol B DNA polymerases enzymes have relative low polymerase activity at room temperature, while Taq DNA polymerase still retains >5% of its peak activity (FIG. 4).

[3] = exonuclease to polymerase activity ratio after modification and re-activation; settings: 5′-3′ exonuclease activity
Excerpt: (See details in Example 5)
It is true that lysine is a common amino acid that can be found in many enzymes.

AmpliTaq Gold: commercial hot-start modified Taq polymerase used as comparator
non-specific/primer-dimer products versus specific products [1]: mostly the specific products

Taq DNA polymerase: Thermus aquaticus Pol I (Taq DNA polymerase)
polymerase activity retained, of its peak activity [2]: > 5%

AmpliTaq: AmpliTaq DNA polymerase
exonuclease to polymerase activity ratio [3]: has been changed
non-specific/primer-dimer products versus specific products [1]: mostly non-specific/primer-dimer products
